# Reference: patent US12590953B2, “Methods for screening cereblon modifying compounds” (CELGENE CORPORATION, priority 2018, dated 2026)
# Entries after “also recorded” stand apart in the source; their conditions may differ.
# Key:
# [1] = system: rabbit SALL4 zinc finger / rabbit cereblon; experiment: In vitro ubiquitination of rabbit SALL4 zinc finger by rabbit cereblon; assay type: biochemical; conditions: rabbit zinc finger amino acids 357-385; with thalidomide
# Procedure: Full length human cereblon, full length mouse cereblon, and full length rabbit cereblon were co-expressed with full length human DDB1 in SF9 insect cells in ESF921 medium in the presence of 50 uM zinc acetate. Cells were resuspended in buffer containing 50 mM Tris-HCl pH 7.5, 500 mM NaCl, 10 mM imidazole, 10% glycerol, 2 mM TCEP, 1× Protease Inhibitor Cocktail (San Diego Bioscience), and 40,000 U Benzonase (Novagen), and sonicated for 30 s. Lysate was clarified by high speed spin at 30,000 rpm for 30 minutes, and clarified lysate was incubated with Ni-NTA affinity resin (Qiagen) for 1 hour. Complex was eluted with buffer containing 500 mM imidazole, and the ZZ-domain-6×His tag removed by thrombin cleavage (Enzyme Research) overnight, combined with dialysis in 10 mM imidazole buffer. Cleaved eluate was incubated with Ni-NTA affinity resin (Qiagen), and the flow-through diluted to 200 mM NaCl for further purification over a Sephacryl S-400 16/60 column (GE Healthcare) in buffer containing 10 mM HEPES pH 7.0, 240 mM NaCl, and 3 mM TECP.
# Purified E1, E2, ubiquitin, Cul4A-Rbx1, cereblon-DDB1, and GSPT1 proteins were used to reconstitute the ubiquitination of MBP-fused WT and mutant proteins in vitro. Substrate proteins purified by maltose affinity resin (NEB) were incubated at an approximate concentration of 30 uM. […]
# SALL4 = target: T1, SALL4 (Homo sapiens, UniProt Q96SW2); experiment: SALL4 immunohistochemistry in huCRBN mouse testis; assay type: in vivo; conditions: huCRBN mice, up to 1000 mg/kg for 7 days
# T1 construct: from tissue; host or cells: testis of homozygous huCRBN knock-in mice
# Procedure: (§1) The SALL4 and ZFP91 protein levels were examined by immunohistochemistry in rabbit, wild-type mouse, and humanized cereblon mouse testes. […] HuCRBN Mice were treated for 7 days and testis were collected and examined by immunohistochemistry (n=3 animals per treatment group per species).
# (§2) Rabbit embryos were stained for SALL4, and mouse testis were stained for SALL4 and ZFP91. Immunohistochemistry (IHC) was performed on the Bond-III automated slide stainer (Leica Microsystems, Buffalo Grove, Ill.) using the Bond Polymer Refine Detection system (Leica Microsystems, DS9800). Formalin fixed paraffin embedded (FFPE) tissues were sectioned at four micron thick and deparaffinized on the Bond-Max instrument. Antigen retrieval was performed with Epitope Retrieval 2 (ER2, pH 9.0) for 20 min at 100° C. The slides were blocked for endogenous peroxidase activity with Peroxide Block for 5 minutes at room temperature. Sections were then incubated with the mouse monoclonal anti-SALL4 EE-30 antibody (Santa Cruz, sc-101147) at a 1:100 dilution for 60 min at room temperature, or with the rabbit monoclonal anti-ZFP91 antibody (Celgene custom clone 122-8-6) at 0.25 ug/ml. For mouse testis, primary antibodies were incubated for 15 min at room temperature, and Post-Primary and horseradish peroxidase (HRP) labeled Polymer were incubated at the instrument's default conditions. […]
# ZFP91 = ZFP91 (Mus musculus, UniProt Q62511); experiment: ZFP91 immunohistochemistry in huCRBN mouse testis; assay type: in vivo; set-up: from tissue; host or cells: testis of homozygous huCRBN knock-in mice; conditions: huCRBN mice, 1000 mg/kg for 7 days
# Procedure: as §1, §2
# Sequence of ZFP91 (Q62511 whole entry): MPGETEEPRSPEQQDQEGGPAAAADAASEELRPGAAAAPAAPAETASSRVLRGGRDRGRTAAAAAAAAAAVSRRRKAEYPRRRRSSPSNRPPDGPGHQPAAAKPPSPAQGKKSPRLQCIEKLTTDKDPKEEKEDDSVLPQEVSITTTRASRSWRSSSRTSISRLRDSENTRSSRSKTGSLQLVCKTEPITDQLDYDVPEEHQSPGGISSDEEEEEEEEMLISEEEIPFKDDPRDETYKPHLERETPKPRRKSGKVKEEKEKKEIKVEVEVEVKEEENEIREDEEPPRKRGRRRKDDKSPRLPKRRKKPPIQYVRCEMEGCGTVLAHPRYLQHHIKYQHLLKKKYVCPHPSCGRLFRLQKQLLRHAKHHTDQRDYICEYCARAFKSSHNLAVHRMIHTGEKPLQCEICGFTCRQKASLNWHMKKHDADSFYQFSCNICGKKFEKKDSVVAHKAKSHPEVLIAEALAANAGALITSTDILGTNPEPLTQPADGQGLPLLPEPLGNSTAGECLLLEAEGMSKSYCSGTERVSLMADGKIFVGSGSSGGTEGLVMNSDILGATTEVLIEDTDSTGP
# Sequence of ZFP91 (Q96SW2 whole entry, further chain): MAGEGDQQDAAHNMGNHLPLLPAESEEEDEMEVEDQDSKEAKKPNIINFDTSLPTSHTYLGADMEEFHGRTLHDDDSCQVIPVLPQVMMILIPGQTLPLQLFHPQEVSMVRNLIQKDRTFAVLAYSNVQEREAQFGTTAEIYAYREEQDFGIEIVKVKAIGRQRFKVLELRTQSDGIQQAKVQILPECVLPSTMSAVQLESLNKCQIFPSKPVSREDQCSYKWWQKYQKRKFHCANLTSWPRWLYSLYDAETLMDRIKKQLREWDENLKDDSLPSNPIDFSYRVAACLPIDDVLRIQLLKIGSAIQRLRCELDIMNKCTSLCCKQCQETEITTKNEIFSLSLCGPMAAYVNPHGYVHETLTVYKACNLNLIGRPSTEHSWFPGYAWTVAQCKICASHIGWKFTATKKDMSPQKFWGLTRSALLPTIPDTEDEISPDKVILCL
# Sequence of ZFP91 (Q3U1J4 whole entry partner): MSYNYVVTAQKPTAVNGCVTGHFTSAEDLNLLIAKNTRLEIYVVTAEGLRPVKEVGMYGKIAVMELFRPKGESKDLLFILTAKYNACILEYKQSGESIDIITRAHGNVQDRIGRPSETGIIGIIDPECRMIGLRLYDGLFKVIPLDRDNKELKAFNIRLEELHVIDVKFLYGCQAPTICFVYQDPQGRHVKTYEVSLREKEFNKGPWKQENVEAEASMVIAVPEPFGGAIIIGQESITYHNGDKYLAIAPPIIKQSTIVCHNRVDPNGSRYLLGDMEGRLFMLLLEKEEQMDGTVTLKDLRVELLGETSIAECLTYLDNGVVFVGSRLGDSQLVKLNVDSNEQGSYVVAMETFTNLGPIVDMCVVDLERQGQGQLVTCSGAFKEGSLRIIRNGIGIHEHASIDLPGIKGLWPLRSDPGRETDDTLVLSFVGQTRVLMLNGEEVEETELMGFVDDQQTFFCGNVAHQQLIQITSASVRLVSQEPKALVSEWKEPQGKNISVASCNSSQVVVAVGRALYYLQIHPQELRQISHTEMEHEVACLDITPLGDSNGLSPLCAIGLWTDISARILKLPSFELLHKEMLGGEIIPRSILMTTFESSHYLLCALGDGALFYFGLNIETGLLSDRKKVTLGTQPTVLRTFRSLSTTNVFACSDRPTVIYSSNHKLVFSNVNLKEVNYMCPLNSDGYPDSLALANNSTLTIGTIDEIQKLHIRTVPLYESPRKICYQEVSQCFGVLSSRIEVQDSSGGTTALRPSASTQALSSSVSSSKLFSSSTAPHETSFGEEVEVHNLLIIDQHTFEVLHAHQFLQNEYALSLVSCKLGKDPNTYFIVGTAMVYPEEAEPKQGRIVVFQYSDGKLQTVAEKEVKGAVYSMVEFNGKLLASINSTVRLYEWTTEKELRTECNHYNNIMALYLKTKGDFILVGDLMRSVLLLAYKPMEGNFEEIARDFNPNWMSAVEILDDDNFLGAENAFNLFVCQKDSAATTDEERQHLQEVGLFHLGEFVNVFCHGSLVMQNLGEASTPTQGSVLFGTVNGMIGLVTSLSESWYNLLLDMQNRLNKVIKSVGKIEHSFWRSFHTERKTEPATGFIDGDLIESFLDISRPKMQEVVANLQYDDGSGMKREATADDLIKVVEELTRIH
# T1 sequence (Q96SW2 whole entry): as the sequence (Q96SW2 whole entry, further chain) above
# T1 sequence (Q3U1J4 whole entry partner): as the sequence (Q3U1J4 whole entry partner) above
structure (smiles),measurement,setting,value
O=C1CCC(N2C(=O)c3ccccc3C2=O)C(=O)N1 (stereo not drawn) [thalidomide],Ubiquitination of rabbit SALL4 zinc finger (orthologous to human ZF2) by rabbit cereblon,[1],could be ubiquitinated by rabbit cereblon in a thalidomide-dependent manner
same,SALL4 protein levels in testis,SALL4,remain unchanged; also recorded: caused degradation of ZFP91 but not SALL4
same,ZFP91 protein levels in testis,ZFP91,robustly downregulated; also recorded: caused degradation of ZFP91 but not SALL4
